Patent US11299467B2 (Antabio SAS, priority 2017, dated 2022)
Where two headings read alike, the source gives them in different places.

Tests used:
Format in all cases: biochemical
NDM-1 = NDM-1 (Klebsiella pneumoniae, UniProt C7C422); test: In vitro enzyme inhibition assay, purified NDM-1 (imipenem hydrolysis, UV 299 nm)
Protocol: (§1) Enzyme inhibition assays were performed using purified MBL enzymes (NDM-1; VIM-1; VIM-2; IMP-1) in 10 mM HEPES buffer pH 7.5 in 96-well microtiter plates. Imipenem (300 μM) was used as substrate and its hydrolysis was followed at UV 299 nm during 10 mn every 30 seconds using a Perkin Elmer Envision UV fluorescence plate reader.
(§2) Mean Ki values from multiple experiments are presented below.
(§3) Studies were undertaken to compare the compounds of the invention with structurally similar compounds (“Comp. x”). Experiments were conducted as described above.

VIM-1 = VIM-1 (Pseudomonas aeruginosa, UniProt A0A0F7KYQ8); test: In vitro enzyme inhibition assay, purified VIM-1 (imipenem hydrolysis, UV 299 nm)
Protocol: as §1, §2, §3

VIM-2 = VIM-2 (Escherichia coli, UniProt Q5U7L7); test: In vitro enzyme inhibition assay, purified VIM-2 (imipenem hydrolysis, UV 299 nm)
Protocol: as §1, §2, §3

IMP-1 = IMP-1 (Serratia marcescens, UniProt P52699); test: In vitro enzyme inhibition assay, purified IMP-1 (imipenem hydrolysis, UV 299 nm)
Protocol: as §1, §2, §3

[1] = comparative study bands, read-out: Ki NDM-1 (comparative study)
[2] = comparative study bands, read-out: Ki VIM-1 (comparative study)
[3] = comparative study bands, read-out: Ki VIM-2 (comparative study)
[4] = comparative study bands, read-out: Ki IMP-1 (comparative study)
[5] = mean Ki from multiple experiments, imipenem 300 μM, Cheng-Prusoff from IC50, read-out: Ki NDM-1
[6] = mean Ki from multiple experiments, imipenem 300 μM, Cheng-Prusoff from IC50, read-out: Ki VIM-1
[7] = mean Ki from multiple experiments, imipenem 300 μM, Cheng-Prusoff from IC50, read-out: Ki VIM-2
[8] = mean Ki from multiple experiments, imipenem 300 μM, Cheng-Prusoff from IC50, read-out: Ki IMP-1

Sequence of IMP-1 (P52699 19-246, looked up, species assumed): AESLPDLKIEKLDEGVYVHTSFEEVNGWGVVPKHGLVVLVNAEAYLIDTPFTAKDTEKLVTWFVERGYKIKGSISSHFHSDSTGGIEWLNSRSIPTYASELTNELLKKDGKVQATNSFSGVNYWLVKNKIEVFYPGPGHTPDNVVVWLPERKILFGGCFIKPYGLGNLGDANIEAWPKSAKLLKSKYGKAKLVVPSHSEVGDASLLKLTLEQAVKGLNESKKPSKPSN
Sequence of NDM-1 (C7C422 29-270, looked up): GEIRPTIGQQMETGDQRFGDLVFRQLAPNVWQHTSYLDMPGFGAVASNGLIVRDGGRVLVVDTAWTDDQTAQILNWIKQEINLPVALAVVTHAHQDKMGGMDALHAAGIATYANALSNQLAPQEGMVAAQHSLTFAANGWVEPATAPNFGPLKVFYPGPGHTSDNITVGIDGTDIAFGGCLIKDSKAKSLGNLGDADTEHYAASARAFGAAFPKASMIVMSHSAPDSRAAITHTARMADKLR

Structure (SMILES) | Ki (NDM-1; [1]) [nM] | Ki (VIM-1; [2]) [nM] | Ki (VIM-2; [3]) [nM] | Ki (IMP-1; [4]) [nM] | Ki (NDM-1; [5]) [nM] | Ki (VIM-1; [6]) [nM] | Ki (VIM-2; [7]) [nM] | Ki (IMP-1; [8]) [nM]
NCC(=O)Nc1ncc(S(=O)(=O)Nc2scnc2C(=O)O)cc1F [Comp. C, reference compound] | 100 to 300 | 500 to 1000 | 100 to 150 | 600 to 5000 | – | – | – | –
N#Cc1cc(S(=O)(=O)Nc2scnc2C(=O)O)ccc1NC(=O)CN [Comp. D, reference compound] | 30 to 100 | 500 to 1000 | 20 to 50 | 150 to 600 | – | – | – | –
N#Cc1cc(S(=O)(=O)Nc2scnc2C(=O)O)ccc1NC(=O)CN [Comp. F, reference compound] | – | 150 to 300 | – | – | – | – | – | –
NCC(=O)Nc1ccc(S(=O)(=O)Nc2scnc2C(=O)O)cc1OC(F)(F)F [Comp. G, reference compound] | 30 to 100 | 300 to 500 | 20 to 50 | 150 to 600 | – | – | – | –
NCC(=O)Nc1ccc(S(=O)(=O)Nc2scnc2C(=O)O)cc1 [Comp. H, reference compound] | 100 to 300 | 500 to 1000 | 20 to 50 | 5000 to 10000 | – | – | – | –
NNC(=O)Nc1ccc(S(=O)(=O)Nc2scnc2C(=O)O)cc1F [Comp. I, reference compound] | 100 to 300 | 500 to 1000 | – | 600 to 5000 | – | – | – | –
N=C(N)NCC(=O)Nc1ncc(S(=O)(=O)Nc2scnc2C(=O)O)cc1F [Example 3, 5-[[5-fluoro-6-[(2-guanidinoacetyl)amino]-3-pyridyl]sulfonylamino]thiazole-4-carboxylic acid] | 100 to 300 | 300 to 500 | 20 to 50 | 600 to 5000 | 50 to 200 | 200 to 500 | 20 to 50 | 1000 to 10000
N=C(N)CC(=O)Nc1ccc(S(=O)(=O)Nc2scnc2C(=O)O)cc1F [Example 4, 5-[[4-[(3-amino-3-imino-propanoyl)amino]-3-fluoro-phenyl]sulfonylamino]thiazole-4-carboxylic acid] | – | – | – | – | < 50 | 200 to 500 | 20 to 50 | 1000 to 10000
N=C(N)NCC(=O)Nc1ccc(S(=O)(=O)Nc2scnc2C(=O)O)cc1C(N)=O [Example 6, 5-[[3-carbamoyl-4-[(2-guanidinoacetyl)amino]phenyl]sulfonylamino]thiazole-4-carboxylic acid] | – | – | – | – | 200 to 2000 | 200 to 500 | – | 1000 to 10000
CN(CC(=O)Nc1ccc(S(=O)(=O)Nc2scnc2C(=O)O)cc1F)C(=N)N [Example 8, 5-[[4-[[2-[carbamimidoyl(methyl)amino]acetyl]amino]-3-fluoro-phenyl]sulfonylamino]thiazole-4-carboxylic acid] | – | – | – | – | 50 to 200 | 200 to 500 | – | 1000 to 10000
C[C@@H](NC(=N)N)C(=O)Nc1ccc(S(=O)(=O)Nc2scnc2C(=O)O)cc1 [Example 11, 5-[[4-[[(2R)-2-guanidinopropanoyl]amino]phenyl]sulfonylamino]thiazole-4-carboxylic acid] | – | – | – | – | 200 to 2000 | 200 to 500 | – | 1000 to 10000
CN(C)C(=N)CC(=O)Nc1ccc(S(=O)(=O)Nc2scnc2C(=O)O)cc1F [Example 12, 5-[[4-[[3-(dimethylamino)-3-imino-propanyl]amino]-3-fluoro-phenyl]sulfonylamino]thiazole-4-carboxylic acid] | – | – | – | – | 50 to 200 | 200 to 500 | – | 500 to 1000
N=C(N)NCC(=O)Nc1ccc(S(=O)(=O)Nc2scnc2C(=O)O)nn1 [Example 14, 5-[[6-[(2-guanidinoacetyl)amino]pyridazin-3-yl]sulfonylamino]thiazole-4-carboxylic acid] | – | – | – | – | 200 to 2000 | 200 to 500 | – | 1000 to 10000
O=C(CNC1=NCCN1)Nc1c(F)cc(S(=O)(=O)Nc2scnc2C(=O)O)cc1F [Example 15, 5-[[4-[[2-(4,5-dihydro-1H-imidazol-2-ylamino)acetyl]amino]-3,5-difluoro-phenyl]sulfonylamino]thiazole-4-carboxylic acid] | – | – | – | – | 50 to 200 | 500 to 1000 | – | 1000 to 10000
N=C(N)NCC(=O)Nc1ccc(S(=O)(=O)Nc2scnc2C(=O)O)cc1 [Example 20, 5-[[4-[(2-guanidinoacetyl)amino]phenyl]sulfonylamino]thiazole-4-carboxylic acid] | 100 to 300 | 150 to 300 | – | – | 50 to 200 | 200 to 500 | – | –
O=C(CC1=NCCN1)Nc1ccc(S(=O)(=O)Nc2scnc2C(=O)O)cc1F [Example 21, 5-[[4-[[2-(4,5-dihydro-1H-imidazol-2-yl)acetyl]amino]-3-fluoro-phenyl]sulfonylamino]thiazole-4-carboxylic acid] | – | – | – | – | < 50 | 200 to 500 | – | 500 to 1000
N=C(N)NNC(=O)Cc1ccc(S(=O)(=O)Nc2scnc2C(=O)O)cc1F [Example 24, 5-[[4-[2-(2-carbamimidoylhydrazino)-2-oxo-ethyl]-3-fluoro-phenyl]sulfonylamino]thiazole-4-carboxylic acid] | – | – | – | – | 50 to 200 | 500 to 1000 | – | 1000 to 10000
N=C(N)CNC(=O)Cc1ccc(S(=O)(=O)Nc2scnc2C(=O)O)cc1F [Example 25, 5-[[4-[2-[(2-amino-2-imino-ethyl)amino]-2-oxo-ethyl]-3-fluoro-phenyl]sulfonylamino] thiazole-4-carboxylic acid] | – | – | – | – | 50 to 200 | 200 to 500 | – | 500 to 1000
N=C(NCC(=O)Nc1ccc(S(=O)(=O)Nc2scnc2C(=O)O)cc1F)N1CCOCC1 [Example 33, 5-[[3-fluoro-4-[[2-(morpholine-4-carboximidoylamino)acetyl]amino]phenyl]sulfonylamino]thiazole-4-carboxylic acid] | – | – | – | – | 200 to 2000 | 200 to 500 | – | 1000 to 10000
CC(C(=N)N)C(=O)Nc1ccc(S(=O)(=O)Nc2scnc2C(=O)O)cc1F (stereo not drawn) [Example 37, 5-[[4-[(3-amino-3-imino-2-methyl-propanoyl)amino]-3-fluoro-phenyl]sulfonylamino]thiazole-4-carboxylic acid] | – | – | – | – | 200 to 2000 | < 200 | – | 1000 to 10000
N=C1NCCN1CC(=O)Nc1ccc(S(=O)(=O)Nc2scnc2C(=O)O)cc1F [Example 38, 5-[[3-fluoro-4-[[2-(2-iminoimidazolidin-1-yl)acetyl]amino]phenyl]sulfonylamino]thiazole-4-carboxylic acid] | – | – | – | – | 200 to 2000 | 200 to 500 | – | 1000 to 10000
CNC(=N)NCC(=O)Nc1ccc(S(=O)(=O)Nc2scnc2C(=O)O)cc1F [Example 40, 5-[[3-fluoro-4-[[2-[(N-methylcarbamimidoyl)amino]acetyl]amino]phenyl]sulfonylamino]thiazole-4-carboxylic acid] | – | – | – | – | 200 to 2000 | 200 to 500 | – | 1000 to 10000
N=C(N)NOCC(=O)Nc1ccc(S(=O)(=O)Nc2scnc2C(=O)O)cc1F [Example 42, 5-[[3-fluoro-4-[(2-guanidinooxyacetyl)amino]phenyl]sulfonylamino]thiazole-4-carboxylic acid] | – | – | – | – | 200 to 2000 | 500 to 1000 | – | 1000 to 10000
N=C(N)N/N=C/C(=O)Nc1ccc(S(=O)(=O)Nc2scnc2C(=O)O)cc1F [Example 43, 5-[[4-[[(2E)-2-(carbamimidoylhydrazono)acetyl]amino]-3-fluoro-phenyl]sulfonylamino]thiazole-4-carboxylic acid] | – | – | – | – | 50 to 200 | 200 to 500 | – | < 500
